From DBAASP
Converted amounts (≈) assume the structure as drawn. Blank lines part the entries; values can stand above or below the molecule they belong to.

How the values were obtained:
Assay in all cases: ≥ marks a high value that may be exact or a test limit, other limits are often not marked, values filed in µg/mL are converted to µM
[1] = system: Bacillus subtilis ATCC 23857
[2] = system: Escherichia coli ATCC 25922
[3] = system: Klebsiella pneumoniae ATCC 700603
[4] = system: Pseudomonas aeruginosa ATCC 9027
[5] = system: Staphylococcus aureus ATCC 25923
Micrococcus luteus = system: Micrococcus luteus
[6] = system: Pseudomonas aeruginosa ATCC 15692
Saccharomyces cerevisiae = system: Saccharomyces cerevisiae
[7] = system: Staphylococcus aureus USA 100
[8] = system: Candida albicans ATCC 90028
[9] = system: Staphylococcus aureus USA 300
Escherichia coli = system: Escherichia coli
[10] = system: Micrococcus luteus ATCC 4698
Escherichia coli JW0013 = system: Escherichia coli JW0013
[11] = system: Escherichia coli NCTC 10418
Bacillus subtilis = system: Bacillus subtilis
[12] = system: Escherichia coli DH5alpha
Klebsiella pneumoniae = system: Klebsiella pneumoniae
Proteus mirabilis = system: Proteus mirabilis
Pseudomonas aeruginosa = system: Pseudomonas aeruginosa
Salmonella typhimurium = system: Salmonella typhimurium
Shigella dysenteriae = system: Shigella dysenteriae
[13] = system: Staphylococcus aureus ATCC 6538
Staphylococcus aureus = system: Staphylococcus aureus
[14] = system: Staphylococcus epidermidis ATCC 12228
[15] = system: Staphylococcus epidermidis

MIC [1]: 8 µM (≈ 11.8 µg/mL) | MIC [2]: 8 µM (≈ 11.8 µg/mL) | MIC [3]: 16 µM (≈ 23.7 µg/mL) | MIC [4]: 16 µM (≈ 23.7 µg/mL) | MIC [5]: 16 µM (≈ 23.7 µg/mL)
SMILES: CC[C@H](C)[C@H](NC(=O)[C@H](CCCCN)NC(=O)[C@H](CCCCN)NC(=O)[C@H](C)NC(=O)[C@H](C)NC(=O)[C@H](C)NC(=O)[C@H](CC(C)C)NC(=O)[C@H](CC(C)C)NC(=O)[C@H](C)NC(=O)[C@H](CCCCN)NC(=O)[C@H](CC(C)C)NC(=O)[C@H](CC(N)=O)NC(=O)[C@@H](N)CC(C)C)C(=O)N[C@@H](CC(C)C)C(N)=O [LNLKALLAAAKKIL]

MIC [2]: 32 µM (≈ 80.6 µg/mL) | MIC (Micrococcus luteus): 0.5 µM (≈ 1.26 µg/mL) | MIC [6]: ≥ 128 µM | MIC (Saccharomyces cerevisiae): ≥ 64 µM | MIC [5]: > 256 µM
SMILES: CC[C@H](C)[C@H](NC(=O)[C@H](CO)NC(=O)[C@H](CO)NC(=O)[C@H](C)NC(=O)[C@H](Cc1c[nH]c2ccccc12)NC(=O)CN)C(=O)NCC(=O)N[C@@H](CO)C(=O)N[C@H](C(=O)N[C@@H](CC(C)C)C(=O)NCC(=O)N[C@@H](CCCCN)C(=O)N[C@@H](Cc1ccccc1)C(=O)N[C@@H](C)C(=O)N[C@@H](CCCCN)C(=O)NCC(=O)NCC(=O)N[C@@H](C)C(=O)N[C@@H](CCC(N)=O)C(=O)N[C@@H](C)C(=O)N[C@@H](Cc1ccccc1)C(=O)N[C@@H](CC(C)C)C(=O)N[C@@H](CCC(N)=O)C(=O)N1CCC[C@H]1C(=O)N[C@@H](CCCCN)C(=O)O)[C@@H](C)CC [GWASSIGSILGKFAKGGAQAFLQPK]

MIC [1]: ≥ 32 µM | MIC [2]: > 128 µM
SMILES: CC[C@H](C)[C@H](NC(=O)CN)C(=O)N[C@H](C(=O)N[C@@H](C)C(=O)NCC(=O)N[C@H](C(=O)N[C@H](C(=O)N[C@@H](C)C(=O)N[C@@H](CCCCN)C(=O)N[C@H](C(=O)N[C@@H](CCCCN)C(=O)N[C@@H](CCCCN)C(N)=O)[C@@H](C)CC)[C@@H](C)CC)[C@@H](C)CC)[C@@H](C)CC [GIIAGIIAKIKK]

MIC [7]: ≥ 100 µM
SMILES: NC(=O)[C@H](CCCN=C(N)N)NC(=O)[C@H](CCCN=C(N)N)NC(=O)[C@H](CCCN=C(N)N)NC(=O)[C@@H](N)CCCN=C(N)N [RRRR]

MIC [8]: ≥ 100 µM | MIC [4]: > 100 µM | MIC [7]: ≥ 100 µM | MIC [9]: ≥ 100 µM
SMILES: NCCCC[C@H](NC(=O)[C@H](Cc1c[nH]c2ccccc12)NC(=O)[C@H](CCCCN)NC(=O)[C@H](Cc1c[nH]c2ccccc12)NC(=O)[C@@H](N)CCCCN)C(=O)N[C@@H](Cc1c[nH]c2ccccc12)C(=O)O [KWKWKW]

MIC [1]: 4 µM (≈ 6.03 µg/mL) | MIC (Escherichia coli): 4 µM (≈ 6.03 µg/mL) | MIC [3]: 16 µM (≈ 24.1 µg/mL) | MIC [5]: 16 µM (≈ 24.1 µg/mL)
SMILES: CC[C@H](C)[C@H](NC(=O)[C@H](CCCCN)NC(=O)[C@H](CCCCN)NC(=O)[C@H](C)NC(=O)[C@@H](NC(=O)[C@H](C)NC(=O)[C@H](CC(C)C)NC(=O)[C@H](CC(C)C)NC(=O)[C@H](CCCCN)NC(=O)[C@H](CCCCN)NC(=O)[C@H](CC(C)C)NC(=O)[C@H](CC(N)=O)NC(=O)CN)C(C)C)C(=O)N[C@@H](CC(C)C)C(N)=O [GNLKKLLAVAKKIL]

MIC [7]: ≥ 100 µM
SMILES: CC(C)C[C@H](NC(=O)[C@H](CCCN=C(N)N)NC(=O)[C@@H](N)CC(C)C)C(=O)N[C@@H](CCCN=C(N)N)C(N)=O [LRLR]

MIC [10]: 0.6 µM (≈ 0.74 µg/mL)
SMILES: NCCCC[C@@H]1NC(=O)[C@H](CCCN=C(N)N)NC(=O)[C@H](CCCCN)NC(=O)[C@H](Cc2c[nH]c3ccccc23)NC(=O)[C@H](CCCCN)NC(=O)[C@H](CCCCN)NC(=O)[C@@H](N)CSSC[C@@H](C(=O)O)NC(=O)[C@H](CCCN=C(N)N)NC1=O [CKKWKRKRC]

MIC (Escherichia coli JW0013): 1.34 µM (≈ 3.3 µg/mL)
SMILES: CC[C@H](C)[C@H](NC(=O)[C@H](CCCN=C(N)N)NC(=O)[C@H](CCCN=C(N)N)NC(=O)[C@@H]1CCCN1C(=O)[C@@H]1CCCN1C(=O)[C@H](CCCN=C(N)N)NC(=O)[C@@H]1CCCN1C(=O)[C@H](CCCN=C(N)N)NC(=O)[C@@H]1CCCN1C(=O)[C@H](CCCN=C(N)N)NC(=O)[C@H](CCCN=C(N)N)NC(=O)[C@@H]1CCCN1C(=O)[C@H](CCCCN)NC(=O)[C@H](CCCCN)NC(=O)[C@H](CC(=O)O)NC(=O)[C@@H](N)C(C)C)C(=O)N[C@@H](Cc1ccc(O)cc1)C(=O)N[C@@H](CC(N)=O)C(=O)N[C@@H](CCCN=C(N)N)C(N)=O [VDKKPRRPRPRPPRRIYNR]

MIC [1]: 8 µM (≈ 11 µg/mL) | MIC [2]: 64 µM (≈ 88.2 µg/mL)
SMILES: CC[C@H](C)[C@H](NC(=O)CN)C(=O)N[C@H](C(=O)N[C@@H](CCCN=C(N)N)C(=O)NCC(=O)N[C@H](C(=O)N[C@H](C(=O)N[C@@H](CCCCN)C(=O)N[C@H](C(=O)N[C@H](C(=O)N[C@@H](CCCCN)C(=O)N[C@@H](CCCN=C(N)N)C(N)=O)[C@@H](C)CC)[C@@H](C)CC)[C@@H](C)CC)[C@@H](C)CC)[C@@H](C)CC [GIIRGIIKIIKR]

MIC [11]: 20 µM (≈ 38.3 µg/mL)
SMILES: CC[C@H](C)[C@H](NC(=O)[C@H](CC(N)=O)NC(=O)[C@@H](NC(=O)[C@H](C)N)C(C)C)C(=O)N1CCC[C@H]1C(=O)N[C@@H](Cc1ccccc1)C(=O)N[C@@H](CCCCN)C(=O)N[C@H](C(=O)N[C@@H](Cc1cnc[nH]1)C(=O)N[C@@H](CC(C)C)C(=O)N[C@@H](CCCN=C(N)N)C(=O)N[C@H]1CSSC[C@@H](C(=O)O)NC(=O)[C@H](Cc2ccccc2)NC(=O)[C@H](C)NC(=O)[C@H](C)NC(=O)[C@H](CCCCN)NC1=O)C(C)C [AVNIPFKVHLRCKAAFC]

MIC [1]: ≥ 128 µM | MIC [2]: > 128 µM | MIC [3]: > 128 µM | MIC [4]: > 128 µM | MIC [5]: > 128 µM
SMILES: CC(C)C[C@H](NC(=O)[C@H](C)NC(=O)[C@H](CCCCN)NC(=O)[C@H](CC(C)C)NC(=O)[C@H](CC(N)=O)NC(=O)[C@@H](N)CC(C)C)C(=O)N[C@@H](CC(C)C)C(=O)N[C@@H](C)C(=O)N[C@H](C(=O)N[C@@H](C)C(=O)N[C@@H](CCCCN)C(=O)N[C@@H](CCCCN)C(N)=O)C(C)C [LNLKALLAVAKK]

MIC (Escherichia coli JW0013): 0.973 µM (≈ 2.4 µg/mL)
SMILES: CC[C@H](C)[C@H](NC(=O)[C@H](CCCN=C(N)N)NC(=O)[C@H](CCCN=C(N)N)NC(=O)[C@@H]1CCCN1C(=O)[C@@H]1CCCN1C(=O)[C@H](CCCN=C(N)N)NC(=O)[C@H](CCCCN)NC(=O)[C@H](CCCN=C(N)N)NC(=O)[C@@H]1CCCN1C(=O)[C@H](CCCCN)NC(=O)[C@H](Cc1ccc(O)cc1)NC(=O)[C@@H]1CCCN1C(=O)[C@H](CCCCN)NC(=O)[C@H](CCCCN)NC(=O)[C@H](CC(=O)O)NC(=O)[C@@H](N)C(C)C)C(=O)N[C@@H](Cc1ccc(O)cc1)C(=O)N[C@@H](CC(N)=O)C(=O)N[C@@H](CCCN=C(N)N)C(N)=O [VDKKPYKPRKRPPRRIYNR]

MIC (Escherichia coli JW0013): 0.685 µM (≈ 1.7 µg/mL)
SMILES: CC[C@H](C)[C@H](NC(=O)[C@H](CCCN=C(N)N)NC(=O)[C@H](CCCN=C(N)N)NC(=O)[C@@H]1CCCN1C(=O)[C@@H]1CCCN1C(=O)[C@H](CCCN=C(N)N)NC(=O)[C@H](CCCN=C(N)N)NC(=O)[C@H](CCCN=C(N)N)NC(=O)[C@@H]1CCCN1C(=O)[C@H](CC(C)C)NC(=O)[C@H](Cc1ccc(O)cc1)NC(=O)[C@@H]1CCCN1C(=O)[C@H](CCCCN)NC(=O)[C@H](CCCCN)NC(=O)[C@H](CC(=O)O)NC(=O)[C@@H](N)C(C)C)C(=O)N[C@@H](Cc1ccc(O)cc1)C(=O)N[C@@H](CC(N)=O)C(=O)N[C@@H](CCCN=C(N)N)C(N)=O [VDKKPYLPRRRPPRRIYNR]

MIC [7]: ≥ 100 µM
SMILES: NC(=O)[C@H](CCCN=C(N)N)NC(=O)[C@H](CCC(=O)O)NC(=O)[C@H](CCCN=C(N)N)NC(=O)[C@@H](N)CCC(=O)O [ERER]

MIC (Bacillus subtilis): 8.98 µM (≈ 12.5 µg/mL) | MIC [12]: ≥ 194 µM | MIC (Escherichia coli): 18 µM (≈ 25 µg/mL) | MIC (Klebsiella pneumoniae): 18 µM (≈ 25 µg/mL) | MIC [10]: ≥ 35.9 µM | MIC (Micrococcus luteus): 4.52 µM (≈ 6.3 µg/mL) | MIC (Proteus mirabilis): ≥ 144 µM | MIC (Pseudomonas aeruginosa): 71.8 µM (≈ 100 µg/mL) | MIC (Salmonella typhimurium): ≥ 71.8 µM | MIC (Shigella dysenteriae): 18 µM (≈ 25 µg/mL) | MIC [13]: 71.8 µM (≈ 100 µg/mL) | MIC (Staphylococcus aureus): 2.23 µM (≈ 3.1 µg/mL) | MIC [14]: 180 µM (≈ 250 µg/mL) | MIC [15]: 2.23 µM (≈ 3.1 µg/mL)
SMILES: CC(C)C[C@H](NC(=O)[C@@H](NC(=O)[C@H](CCCCN)NC(=O)[C@H](CO)NC(=O)[C@H](C)NC(=O)[C@@H](NC(=O)[C@H](CCCCN)NC(=O)[C@H](Cc1ccccc1)NC(=O)[C@H](CC(C)C)NC(=O)[C@H](C)NC(=O)CNC(=O)[C@H](CC(C)C)NC(=O)[C@@H](N)Cc1ccccc1)C(C)C)C(C)C)C(=O)O [FLGALFKVASKVL]
